Test in all cases: fluorescence titration (intramolecular strand displacement)
Holding throughout (details): 6 mM MgCl2; apparent; 10 mM Tris-HCl pH 7.5, 25 °C

For assay [1], the system named is 25-7 ATP ISD FAM–BHQ-1 (DNA, aptamer) CACCTGGGGGAGTATTGCGGAGGAAGGTTTTTCCAGGTG
Assay [2] concerns 25-7 ATP ISD Cy3–BHQ-1 (DNA, aptamer) CACCTGGGGGAGTATTGCGGAGGAAGGTTTTTCCAGGTG
Assay [3] concerns 25-7 ATP ISD Cy3–Dab (DNA, aptamer, dabcyl-5-methyl-dC at 40 (3' end)) CACCTGGGGGAGTATTGCGGAGGAAGGTTTTTCCAGGTGC
Assay [4] relates to 25-7 ATP ISD FAM–Dab (DNA, aptamer, dabcyl-5-methyl-dC at 40 (3' end)) CACCTGGGGGAGTATTGCGGAGGAAGGTTTTTCCAGGTGC

For `Nc1ncnc2c1ncn2[C@@H]1O[C@H](COP(=O)(O)OP(=O)(O)OP(=O)(O)O)[C@@H](O)[C@H]1O`, the Kd in assay [1] was found to be 1800 ± 1700 µM; in assay [2] it was 460 ± 65 µM; in assay [3], 390 ± 83 µM; in assay [4], 1300 ± 600 µM.
